Read-outs that look alike come from different tables or passages of the source.
Molecular target: T1, nLuc-RIPK1 fusion protein (Homo sapiens, UniProt Q13546)
T1 construct: expressed in transfected cells
T1 sequence (Q13546 1-671): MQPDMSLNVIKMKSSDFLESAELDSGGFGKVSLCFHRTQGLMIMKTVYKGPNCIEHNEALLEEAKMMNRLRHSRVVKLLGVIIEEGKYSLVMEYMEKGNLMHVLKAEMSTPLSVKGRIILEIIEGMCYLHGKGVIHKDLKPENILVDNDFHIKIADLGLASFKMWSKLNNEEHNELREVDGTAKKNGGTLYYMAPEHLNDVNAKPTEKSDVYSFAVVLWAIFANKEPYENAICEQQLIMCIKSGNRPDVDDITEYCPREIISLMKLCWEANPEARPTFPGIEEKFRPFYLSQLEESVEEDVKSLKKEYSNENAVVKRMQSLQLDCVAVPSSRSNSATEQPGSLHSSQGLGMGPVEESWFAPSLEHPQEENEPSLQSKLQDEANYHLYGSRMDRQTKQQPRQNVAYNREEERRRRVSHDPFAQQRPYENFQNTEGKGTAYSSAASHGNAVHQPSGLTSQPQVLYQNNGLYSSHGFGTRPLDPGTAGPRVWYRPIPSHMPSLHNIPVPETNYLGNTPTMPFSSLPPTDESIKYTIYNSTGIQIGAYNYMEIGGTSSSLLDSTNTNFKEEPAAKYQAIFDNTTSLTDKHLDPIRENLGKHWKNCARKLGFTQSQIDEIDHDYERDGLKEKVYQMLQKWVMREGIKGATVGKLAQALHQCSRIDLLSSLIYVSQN
Experiment: NanoBRET based in-cell RIPK1 target engagement
Procedure: Figure 2 LD4172, a RIPK1 PROTAC, induces potent and highly specific degradation of RIPK1 in a panel of cell lines. A, Chemical structures of RIPK1 PROTAC, LD4172, and its negative control, LD4172-NC. […] B, Quantification of RIPK1 levels in both Jurkat and B16F10 cells treated with LD4172 at indicated concentrations for 24 h, followed by Western blotting. C, DC50 and Dmax of LD4172 in various human and mouse cell lines. DC50, the drug concentration causing 50% protein degradation; Dmax, the maximum level of protein degradation. D, RIPK1 degradation kinetics induced by LD4172 treatment (1 μM) and resynthesis kinetics upon washout of LD4172 in both Jurkat and B16F10 cells. E, Quantification of D. The degradation half-life of RIPK1 induced by LD4172 (1 μM) is <2 h in Jurkat and B16F10 cells. […] F, NanoBRET based in-cell RIPK1 target engagement. HEK293 cells were transfected with a plasmid expressing nLuc-RIPK1 fusion protein for 24 h, followed by incubating with a RIPK1 NanoBRET tracer (500 nM) and different concentrations of LD4172 and LD4172-NC (n=3). G, Time-resolved fluorescence resonance energy transfer (TR-FRET) based biochemical binding assay for RIPK1. GST-tagged human RIPK1 (1 nM), Tb-labeled anti-GST antibody (0.3 nM), a RIPK1 TR-FRET tracer (350 nM) and different concentrations of LD4172 (n=3) were incubated for 2 hours, followed by TR-FRET measurements with an excitation wavelength at 340 nm and emission wavelengths at 495 and 520 nm. H, NanoBRET based in-cell assay for ternary complex formation. HEK293T cells were co-transfected with nLuc-RIPK1 and VHL-HaloTag plasmids for 24 h, followed by treatment with indicated concentrations of LD4172 or LD4172-NC (n=3). I, LD4172 induced RIPK1 degradation depends on ternary complex formation, neddylation and proteasome activity. Representative immunoblots of RIPK1 in both Jurkat and B16F10 cells. Cells were treated with RIPK1 inhibitor (T2I), VHL ligand, a neddylation inhibitor (MLN4924) or a proteasome inhibitor (Carfilzomib) at indicated concentrations for 4 hours, followed by LD4172 treatment for 4 hours. J, Proteome profiling of LD4172 induced protein degradation. MDA-MB- 231 cells were treated with LD4172 (200 nM) or LD4172-NC (200 nM) for 6 h (n=3). In total, ~10,000 proteins were quantified in the proteomics experiment. […] Blue dots represent kinases that are inhibited by the warhead of LD4172 but not degraded by LD4172.
To elucidate the formation of a binary complex during RIPK1 degradation, we developed a competitive NanoBRET (Nano-Bioluminescence Resonance Energy transfer)-based target engagement (TE) assay to quantify the binding between RIPK1 and LD4172 in cells[12],[13]. First, we developed a RIPK1 tracer by conjugating the LD4172 warhead T2I with a BODIPY-590 fluorescent dye, dubbed T2–590 (refer to Supporting Information for details). The dissociation equilibrium constant (Kd) between the tracer and RIPK1 was determined to be 0.5 μM by titrating the tracer in HEK293T cells expressing a nLuc-RIPK1 fusion protein. […] This is usually expected, considering that the large molecular weight of LD4172 may lead to poor cellular permeability.

Cc1ncsc1-c1ccc([C@H](C)NC(=O)[C@@H]2C[C@@H](O)CN2C(=O)[C@@H](NC(=O)CCCCCCCCCCC(=O)NCCCn2cc(-c3ccc4c(c3)CCN4C(=O)Cc3cccc(OC(F)(F)F)c3)c3c(N)ncnc32)C(C)(C)C)cc1 [LD4172]
Ki (Cheng-Prusoff equation, read-out: apparent Ki between compound and RIPK1 in the cells): 1.9 µM | IC50 (HEK293 cells, tracer 500 nM, n=3, read-out: IC50 (nM), Fig. 2F): 3750 nM | IC50 (tracer concentration at its Kd value, read-out: IC50, competition with tracer): 3700 nM
